# Reference: patent US20200085839A1, “COMBINATION OF IMMUNOTHERAPEUTICS AND BISFLUOROALKYL-1,4-BENZODIAZEPINONE COMPOUNDS FOR TREATING LYMPHOMAS” (Ayala Pharmaceuticals Inc., priority 2018, published 2020)
# Where two headings read alike, the source gives them in different places.
# How the values were obtained:
# Test in all cases: Cell surface BCMA by FACS
# Format in all cases: cell-based, human
# [1] = test system: JVM-2 cells (Mantle Cell Lymphoma); details: for EC50: Homo sapiens
# Experimental: (§1) […] cell lines, comprising 9 subtypes of lymphomas (see Table 1), were seeded at 1×10^5 cells/well in a total volume of 250 μl into a 96-well plate. The cells were cultured in RPMI medium supplemented with 10% FCS. Compound (22) was added to the cell cultures at a concentration of 10 μM, 1 μM, 100 nM, 10 nM, 1 nM, 100 pM, 10 pM, 1 pM, and 100 fM, and cell lines (8 from Hadassah Medical Center, 31 from Eurofins) were incubated at 37° C. for 24 hours with Compound (22). Following incubation, the cells were collected and BCMA levels were evaluated on the cell surface for cell-bound BCMA. Cells were stained with an anti-BCMA antibody (PE anti-human 19F2 BCMA, Biolegend), and cell surface BCMA levels were determined by FACS analysis (Mean Fluorescence Intensity. Soluble BCMA levels were analyzed by ELISA (Human BCMA/TNFRSF17 DuoSet kit: R&D Systems).
# [2] = test system: BCP-1 cells (B-cell Lymphoma); details: for EC50: Homo sapiens
# Experimental: as §1
# [3] = test system: Jiyoye cells (Burkitt's Lymphoma); details: for EC50: Homo sapiens
# Experimental: as §1
# SUDHL-10 cells (DLBCL) = details: for EC50: Homo sapiens
# Experimental: as §1
# [4] = test system: Raji cells (Burkitt's Lymphoma); details: for EC50: Homo sapiens
# Experimental: as §1
# [5] = test system: GA-10 cells (Burkitt's Lymphoma); details: for EC50: Homo sapiens
# Experimental: as §1
# [6] = test system: NU-DUL-1 cells (B-cell Lymphoma); details: for EC50: Homo sapiens
# Experimental: as §1
# [7] = test system: SR cells (Anaplastic Large Cell Lymphoma); details: for EC50: Homo sapiens
# Experimental: as §1
# [8] = test system: EB-2 cells (Burkitt's Lymphoma); details: for EC50: Homo sapiens
# Experimental: as §1
# ST486 cells (DLBCL) = details: for EC50: Homo sapiens
# Experimental: as §1
# [9] = test system: TUR cells (Histiocytic Lymphoma); details: for EC50: Homo sapiens
# Experimental: as §1
# [10] = test system: U937 cells (Histiocytic Lymphoma); details: for EC50: Homo sapiens
# Experimental: as §1
# [11] = test system: CRO-AP2 cells (B-cell Lymphoma); details: for EC50: Homo sapiens
# Experimental: as §1
# SUDHL-8 cells (DLBCL) = details: for EC50: Homo sapiens
# Experimental: as §1
# [12] = test system: BC-1 cells (B-cell Lymphoma); details: for EC50: Homo sapiens
# Experimental: as §1
# [13] = test system: CA46 cells (Burkitt's Lymphoma); details: for EC50: Homo sapiens
# Experimental: as §1
# RS411 cells (B-ALL) = test system: RS411 cells (B-ALL)
# Experimental: (§2) Cells were seeded at 1×10^4 cells/well in a total volume of 250 μl into a 96-well plate. The cells were cultured in RPMI supplemented with 10% FCS.
# (§3) The tested compounds (Compound 1 and Compound 22) were added to the cell cultures at concentrations of: 0, 10, 1, 0.5, 0.1, 0.01, 0.001 μM ([…], 10 nM, 100 nM, 500 nM, 1000 nM, and 10000 nM). Following 24 hours of incubation at 37° C., the cells were collected and stained with anti-BCMA antibody and immediately analyzed by FACS.
# as §1
# SUDHL-6 cells (DLBCL) = test system: SUDHL-6 cells (DLBCL)
# Experimental: as §2, §3, §1
# [14] = 24 h, read-out: BCMA (Mean Fluorescence Intensity) EC50
compound,measurement,setting,value
"Cc1cccc2c1NC(=O)[C@@H](NC(=O)[C@H](CCC(F)(F)F)[C@H](CCC(F)(F)F)C(N)=O)N=C2c1cccc(F)c1 [Compound (22), (2R,3S)—N-((3S)-5-(3-fluorophenyl)-9-methyl-2-oxo-2,3-dihydro-1H-1,4-benzodiazepin-3-yl)-2,3-bis(3,3,3-trifluoropropyl)succinamide]",mBCMA (MFI) Fold Increase,[1],7.0 fold
same,BCMA (Mean Fluorescence Intensity) 1 nM Compound (22),"[1]; 1 nM, 24 h",4437
same,BCMA (Mean Fluorescence Intensity) 100 nM Compound (22),"[1]; 100 nM, 24 h",21757
same,EC50,[1]; [14],3.1 nM
same,EC50,[1]; read-out: mBCMA (MFI) EC50,3.1 nM
same,mBCMA (MFI) Fold Increase,[2],2.9 fold
same,BCMA (Mean Fluorescence Intensity) 1 nM Compound (22),"[2]; 1 nM, 24 h",398
same,BCMA (Mean Fluorescence Intensity) 100 nM Compound (22),"[2]; 100 nM, 24 h",1159
same,cell-bound BCMA,[2]; FIG. 6A,increased cell-bound BCMA
same,EC50,[2]; [14],45.6 nM
same,EC50,[2]; read-out: mBCMA (MFI) EC50,45.6 nM
same,EC50,"[3]; JIYOYE, read-out: mBCMA (MFI) EC50",7.6 nM
same,EC50,"[3]; Jiyoye, 24 h, read-out: BCMA (Mean Fluorescence Intensity) EC50",7.6 nM
same,mBCMA (MFI) Fold Increase,[3]; Jiyoye,4.2 fold
same,BCMA (Mean Fluorescence Intensity) 1 nM Compound (22),"[3]; Jiyoye, 1 nM, 24 h",1864
same,BCMA (Mean Fluorescence Intensity) 100 nM Compound (22),"[3]; Jiyoye, 100 nM, 24 h",2616
same,cell-bound BCMA,"[3]; Jiyoye, FIG. 8A",increased cell-bound BCMA
same,mBCMA (MFI) Fold Increase,SUDHL-10 cells (DLBCL),6.7 fold
same,BCMA (Mean Fluorescence Intensity) 1 nM Compound (22),"SUDHL-10 cells (DLBCL); 1 nM, 24 h",6061
same,BCMA (Mean Fluorescence Intensity) 100 nM Compound (22),"SUDHL-10 cells (DLBCL); 100 nM, 24 h",7822
same,EC50,"SUDHL-10 cells (DLBCL); SU-DHL10, 24 h, read-out: BCMA (Mean Fluorescence Intensity) EC50",5.9 nM
same,EC50,"SUDHL-10 cells (DLBCL); SU-DHL10, read-out: mBCMA (MFI) EC50",5.9 nM
same,mBCMA (MFI) Fold Increase,[4],2.2 fold
same,BCMA (Mean Fluorescence Intensity) 1 nM Compound (22),"[4]; 1 nM, 24 h",521
same,BCMA (Mean Fluorescence Intensity) 100 nM Compound (22),"[4]; 100 nM, 24 h",650
same,EC50,[4]; [14],1.1 nM
same,EC50,[4]; read-out: mBCMA (MFI) EC50,1.1 nM
same,mBCMA (MFI) Fold Increase,[5],5.6 fold
same,BCMA (Mean Fluorescence Intensity) 1 nM Compound (22),"[5]; 1 nM, 24 h",41993
same,BCMA (Mean Fluorescence Intensity) 100 nM Compound (22),"[5]; 100 nM, 24 h",51080
same,EC50,[5]; [14],0.56 nM
same,EC50,[5]; read-out: mBCMA (MFI) EC50,0.56 nM
same,mBCMA (MFI) Fold Increase,[6],7.0 fold
same,BCMA (Mean Fluorescence Intensity) 1 nM Compound (22),"[6]; 1 nM, 24 h",3892
same,BCMA (Mean Fluorescence Intensity) 100 nM Compound (22),"[6]; 100 nM, 24 h",4665
same,EC50,[6]; [14],0.61 nM
same,EC50,[6]; read-out: mBCMA (MFI) EC50,0.61 nM
same,mBCMA (MFI) Fold Increase,[7],1.0 fold
same,BCMA (Mean Fluorescence Intensity) 1 nM Compound (22),"[7]; 1 nM, 24 h",289
same,BCMA (Mean Fluorescence Intensity) 100 nM Compound (22),"[7]; 100 nM, 24 h",293
same,EC50,[7]; [14],> 10000 nM
same,EC50,[7]; read-out: mBCMA (MFI) EC50,> 10000 nM
same,mBCMA (MFI) Fold Increase,[8],5.4 fold
same,BCMA (Mean Fluorescence Intensity) 1 nM Compound (22),"[8]; 1 nM, 24 h",18536
same,BCMA (Mean Fluorescence Intensity) 100 nM Compound (22),"[8]; 100 nM, 24 h",28188
same,EC50,"[8]; EB2, 24 h, read-out: BCMA (Mean Fluorescence Intensity) EC50",0.98 nM
same,EC50,"[8]; EB2, read-out: mBCMA (MFI) EC50",0.98 nM
same,mBCMA (MFI) Fold Increase,ST486 cells (DLBCL),4.5 fold
same,BCMA (Mean Fluorescence Intensity) 1 nM Compound (22),"ST486 cells (DLBCL); 1 nM, 24 h",10564
same,BCMA (Mean Fluorescence Intensity) 100 nM Compound (22),"ST486 cells (DLBCL); 100 nM, 24 h",13410
same,EC50,ST486 cells (DLBCL); [14],0.58 nM
same,EC50,ST486 cells (DLBCL); read-out: mBCMA (MFI) EC50,0.58 nM
same,mBCMA (MFI) Fold Increase,[9],1.0 fold
same,BCMA (Mean Fluorescence Intensity) 1 nM Compound (22),"[9]; 1 nM, 24 h",464
same,BCMA (Mean Fluorescence Intensity) 100 nM Compound (22),"[9]; 100 nM, 24 h",462
same,EC50,[9]; [14],> 10000 nM
same,EC50,[9]; read-out: mBCMA (MFI) EC50,> 10000 nM
same,mBCMA (MFI) Fold Increase,[10],1.0 fold
same,BCMA (Mean Fluorescence Intensity) 1 nM Compound (22),"[10]; 1 nM, 24 h",327
same,BCMA (Mean Fluorescence Intensity) 100 nM Compound (22),"[10]; 100 nM, 24 h",328
same,EC50,"[10]; U-937, 24 h, read-out: BCMA (Mean Fluorescence Intensity) EC50",> 10000 nM
same,EC50,"[10]; U-937, read-out: mBCMA (MFI) EC50",> 10000 nM
same,mBCMA (MFI) Fold Increase,[11],6.6 fold
same,BCMA (Mean Fluorescence Intensity) 1 nM Compound (22),"[11]; 1 nM, 24 h",855
same,BCMA (Mean Fluorescence Intensity) 100 nM Compound (22),"[11]; 100 nM, 24 h",4782
same,EC50,[11]; [14],5.6 nM
same,EC50,[11]; read-out: mBCMA (MFI) EC50,5.6 nM
same,mBCMA (MFI) Fold Increase,SUDHL-8 cells (DLBCL),1.7 fold
same,BCMA (Mean Fluorescence Intensity) 1 nM Compound (22),"SUDHL-8 cells (DLBCL); 1 nM, 24 h",350
same,BCMA (Mean Fluorescence Intensity) 100 nM Compound (22),"SUDHL-8 cells (DLBCL); 100 nM, 24 h",414
same,EC50,"SUDHL-8 cells (DLBCL); SU-DHL-8, 24 h, read-out: BCMA (Mean Fluorescence Intensity) EC50",> 10000 nM
same,EC50,"SUDHL-8 cells (DLBCL); SU-DHL-8, read-out: mBCMA (MFI) EC50",> 10000 nM
same,mBCMA (MFI) Fold Increase,[12],5.9 fold
same,BCMA (Mean Fluorescence Intensity) 1 nM Compound (22),"[12]; 1 nM, 24 h",676
same,BCMA (Mean Fluorescence Intensity) 100 nM Compound (22),"[12]; 100 nM, 24 h",3694
same,EC50,"[12]; BC1, 24 h, read-out: BCMA (Mean Fluorescence Intensity) EC50",30.6 nM
same,EC50,"[12]; BC1, read-out: mBCMA (MFI) EC50",30.6 nM
same,mBCMA (MFI) Fold Increase,[13],5.5 fold
same,BCMA (Mean Fluorescence Intensity) 1 nM Compound (22),"[13]; 1 nM, 24 h",6424
same,BCMA (Mean Fluorescence Intensity) 100 nM Compound (22),"[13]; 100 nM, 24 h",13506
same,EC50,[13]; [14],2.3 nM
same,EC50,[13]; read-out: mBCMA (MFI) EC50,2.3 nM
same,mBCMA (MFI) Fold Increase,RS411 cells (B-ALL),0.9 fold
same,BCMA (Mean Fluorescence Intensity) 1 nM Compound (22),"RS411 cells (B-ALL); 1 nM, 24 h",2273
same,BCMA (Mean Fluorescence Intensity) 100 nM Compound (22),"RS411 cells (B-ALL); 100 nM, 24 h",2518
same,mBCMA (MFI) Fold Increase,SUDHL-6 cells (DLBCL),2.6 fold
same,BCMA (Mean Fluorescence Intensity) 1 nM Compound (22),"SUDHL-6 cells (DLBCL); 1 nM, 24 h",22915
same,BCMA (Mean Fluorescence Intensity) 100 nM Compound (22),"SUDHL-6 cells (DLBCL); 100 nM, 24 h",24812
